Literature values as cited in patent US20130281512A1, “AGENTS FOR TREATING DISORDERS INVOLVING MODULATION OF RYANODINE RECEPTORS” (LES LABORATOIRES SERVIER, priority 2012, published 2013).

Columns and labels:
RyR1 [1] = conditions: mdx mouse model; cited from earlier work
RyR1 [2] = target: T1, RyR1 (Mus musculus, UniProt E9PZQ0); conditions: extreme exercise, mice; cited from earlier work
T1 construct: RyR1 from aged (24 months) mice is oxidized, cysteine-nitrosylated, and depleted of calstabin1; host or cells: mice (in vivo)
T1 sequence (E9PZQ0 whole entry): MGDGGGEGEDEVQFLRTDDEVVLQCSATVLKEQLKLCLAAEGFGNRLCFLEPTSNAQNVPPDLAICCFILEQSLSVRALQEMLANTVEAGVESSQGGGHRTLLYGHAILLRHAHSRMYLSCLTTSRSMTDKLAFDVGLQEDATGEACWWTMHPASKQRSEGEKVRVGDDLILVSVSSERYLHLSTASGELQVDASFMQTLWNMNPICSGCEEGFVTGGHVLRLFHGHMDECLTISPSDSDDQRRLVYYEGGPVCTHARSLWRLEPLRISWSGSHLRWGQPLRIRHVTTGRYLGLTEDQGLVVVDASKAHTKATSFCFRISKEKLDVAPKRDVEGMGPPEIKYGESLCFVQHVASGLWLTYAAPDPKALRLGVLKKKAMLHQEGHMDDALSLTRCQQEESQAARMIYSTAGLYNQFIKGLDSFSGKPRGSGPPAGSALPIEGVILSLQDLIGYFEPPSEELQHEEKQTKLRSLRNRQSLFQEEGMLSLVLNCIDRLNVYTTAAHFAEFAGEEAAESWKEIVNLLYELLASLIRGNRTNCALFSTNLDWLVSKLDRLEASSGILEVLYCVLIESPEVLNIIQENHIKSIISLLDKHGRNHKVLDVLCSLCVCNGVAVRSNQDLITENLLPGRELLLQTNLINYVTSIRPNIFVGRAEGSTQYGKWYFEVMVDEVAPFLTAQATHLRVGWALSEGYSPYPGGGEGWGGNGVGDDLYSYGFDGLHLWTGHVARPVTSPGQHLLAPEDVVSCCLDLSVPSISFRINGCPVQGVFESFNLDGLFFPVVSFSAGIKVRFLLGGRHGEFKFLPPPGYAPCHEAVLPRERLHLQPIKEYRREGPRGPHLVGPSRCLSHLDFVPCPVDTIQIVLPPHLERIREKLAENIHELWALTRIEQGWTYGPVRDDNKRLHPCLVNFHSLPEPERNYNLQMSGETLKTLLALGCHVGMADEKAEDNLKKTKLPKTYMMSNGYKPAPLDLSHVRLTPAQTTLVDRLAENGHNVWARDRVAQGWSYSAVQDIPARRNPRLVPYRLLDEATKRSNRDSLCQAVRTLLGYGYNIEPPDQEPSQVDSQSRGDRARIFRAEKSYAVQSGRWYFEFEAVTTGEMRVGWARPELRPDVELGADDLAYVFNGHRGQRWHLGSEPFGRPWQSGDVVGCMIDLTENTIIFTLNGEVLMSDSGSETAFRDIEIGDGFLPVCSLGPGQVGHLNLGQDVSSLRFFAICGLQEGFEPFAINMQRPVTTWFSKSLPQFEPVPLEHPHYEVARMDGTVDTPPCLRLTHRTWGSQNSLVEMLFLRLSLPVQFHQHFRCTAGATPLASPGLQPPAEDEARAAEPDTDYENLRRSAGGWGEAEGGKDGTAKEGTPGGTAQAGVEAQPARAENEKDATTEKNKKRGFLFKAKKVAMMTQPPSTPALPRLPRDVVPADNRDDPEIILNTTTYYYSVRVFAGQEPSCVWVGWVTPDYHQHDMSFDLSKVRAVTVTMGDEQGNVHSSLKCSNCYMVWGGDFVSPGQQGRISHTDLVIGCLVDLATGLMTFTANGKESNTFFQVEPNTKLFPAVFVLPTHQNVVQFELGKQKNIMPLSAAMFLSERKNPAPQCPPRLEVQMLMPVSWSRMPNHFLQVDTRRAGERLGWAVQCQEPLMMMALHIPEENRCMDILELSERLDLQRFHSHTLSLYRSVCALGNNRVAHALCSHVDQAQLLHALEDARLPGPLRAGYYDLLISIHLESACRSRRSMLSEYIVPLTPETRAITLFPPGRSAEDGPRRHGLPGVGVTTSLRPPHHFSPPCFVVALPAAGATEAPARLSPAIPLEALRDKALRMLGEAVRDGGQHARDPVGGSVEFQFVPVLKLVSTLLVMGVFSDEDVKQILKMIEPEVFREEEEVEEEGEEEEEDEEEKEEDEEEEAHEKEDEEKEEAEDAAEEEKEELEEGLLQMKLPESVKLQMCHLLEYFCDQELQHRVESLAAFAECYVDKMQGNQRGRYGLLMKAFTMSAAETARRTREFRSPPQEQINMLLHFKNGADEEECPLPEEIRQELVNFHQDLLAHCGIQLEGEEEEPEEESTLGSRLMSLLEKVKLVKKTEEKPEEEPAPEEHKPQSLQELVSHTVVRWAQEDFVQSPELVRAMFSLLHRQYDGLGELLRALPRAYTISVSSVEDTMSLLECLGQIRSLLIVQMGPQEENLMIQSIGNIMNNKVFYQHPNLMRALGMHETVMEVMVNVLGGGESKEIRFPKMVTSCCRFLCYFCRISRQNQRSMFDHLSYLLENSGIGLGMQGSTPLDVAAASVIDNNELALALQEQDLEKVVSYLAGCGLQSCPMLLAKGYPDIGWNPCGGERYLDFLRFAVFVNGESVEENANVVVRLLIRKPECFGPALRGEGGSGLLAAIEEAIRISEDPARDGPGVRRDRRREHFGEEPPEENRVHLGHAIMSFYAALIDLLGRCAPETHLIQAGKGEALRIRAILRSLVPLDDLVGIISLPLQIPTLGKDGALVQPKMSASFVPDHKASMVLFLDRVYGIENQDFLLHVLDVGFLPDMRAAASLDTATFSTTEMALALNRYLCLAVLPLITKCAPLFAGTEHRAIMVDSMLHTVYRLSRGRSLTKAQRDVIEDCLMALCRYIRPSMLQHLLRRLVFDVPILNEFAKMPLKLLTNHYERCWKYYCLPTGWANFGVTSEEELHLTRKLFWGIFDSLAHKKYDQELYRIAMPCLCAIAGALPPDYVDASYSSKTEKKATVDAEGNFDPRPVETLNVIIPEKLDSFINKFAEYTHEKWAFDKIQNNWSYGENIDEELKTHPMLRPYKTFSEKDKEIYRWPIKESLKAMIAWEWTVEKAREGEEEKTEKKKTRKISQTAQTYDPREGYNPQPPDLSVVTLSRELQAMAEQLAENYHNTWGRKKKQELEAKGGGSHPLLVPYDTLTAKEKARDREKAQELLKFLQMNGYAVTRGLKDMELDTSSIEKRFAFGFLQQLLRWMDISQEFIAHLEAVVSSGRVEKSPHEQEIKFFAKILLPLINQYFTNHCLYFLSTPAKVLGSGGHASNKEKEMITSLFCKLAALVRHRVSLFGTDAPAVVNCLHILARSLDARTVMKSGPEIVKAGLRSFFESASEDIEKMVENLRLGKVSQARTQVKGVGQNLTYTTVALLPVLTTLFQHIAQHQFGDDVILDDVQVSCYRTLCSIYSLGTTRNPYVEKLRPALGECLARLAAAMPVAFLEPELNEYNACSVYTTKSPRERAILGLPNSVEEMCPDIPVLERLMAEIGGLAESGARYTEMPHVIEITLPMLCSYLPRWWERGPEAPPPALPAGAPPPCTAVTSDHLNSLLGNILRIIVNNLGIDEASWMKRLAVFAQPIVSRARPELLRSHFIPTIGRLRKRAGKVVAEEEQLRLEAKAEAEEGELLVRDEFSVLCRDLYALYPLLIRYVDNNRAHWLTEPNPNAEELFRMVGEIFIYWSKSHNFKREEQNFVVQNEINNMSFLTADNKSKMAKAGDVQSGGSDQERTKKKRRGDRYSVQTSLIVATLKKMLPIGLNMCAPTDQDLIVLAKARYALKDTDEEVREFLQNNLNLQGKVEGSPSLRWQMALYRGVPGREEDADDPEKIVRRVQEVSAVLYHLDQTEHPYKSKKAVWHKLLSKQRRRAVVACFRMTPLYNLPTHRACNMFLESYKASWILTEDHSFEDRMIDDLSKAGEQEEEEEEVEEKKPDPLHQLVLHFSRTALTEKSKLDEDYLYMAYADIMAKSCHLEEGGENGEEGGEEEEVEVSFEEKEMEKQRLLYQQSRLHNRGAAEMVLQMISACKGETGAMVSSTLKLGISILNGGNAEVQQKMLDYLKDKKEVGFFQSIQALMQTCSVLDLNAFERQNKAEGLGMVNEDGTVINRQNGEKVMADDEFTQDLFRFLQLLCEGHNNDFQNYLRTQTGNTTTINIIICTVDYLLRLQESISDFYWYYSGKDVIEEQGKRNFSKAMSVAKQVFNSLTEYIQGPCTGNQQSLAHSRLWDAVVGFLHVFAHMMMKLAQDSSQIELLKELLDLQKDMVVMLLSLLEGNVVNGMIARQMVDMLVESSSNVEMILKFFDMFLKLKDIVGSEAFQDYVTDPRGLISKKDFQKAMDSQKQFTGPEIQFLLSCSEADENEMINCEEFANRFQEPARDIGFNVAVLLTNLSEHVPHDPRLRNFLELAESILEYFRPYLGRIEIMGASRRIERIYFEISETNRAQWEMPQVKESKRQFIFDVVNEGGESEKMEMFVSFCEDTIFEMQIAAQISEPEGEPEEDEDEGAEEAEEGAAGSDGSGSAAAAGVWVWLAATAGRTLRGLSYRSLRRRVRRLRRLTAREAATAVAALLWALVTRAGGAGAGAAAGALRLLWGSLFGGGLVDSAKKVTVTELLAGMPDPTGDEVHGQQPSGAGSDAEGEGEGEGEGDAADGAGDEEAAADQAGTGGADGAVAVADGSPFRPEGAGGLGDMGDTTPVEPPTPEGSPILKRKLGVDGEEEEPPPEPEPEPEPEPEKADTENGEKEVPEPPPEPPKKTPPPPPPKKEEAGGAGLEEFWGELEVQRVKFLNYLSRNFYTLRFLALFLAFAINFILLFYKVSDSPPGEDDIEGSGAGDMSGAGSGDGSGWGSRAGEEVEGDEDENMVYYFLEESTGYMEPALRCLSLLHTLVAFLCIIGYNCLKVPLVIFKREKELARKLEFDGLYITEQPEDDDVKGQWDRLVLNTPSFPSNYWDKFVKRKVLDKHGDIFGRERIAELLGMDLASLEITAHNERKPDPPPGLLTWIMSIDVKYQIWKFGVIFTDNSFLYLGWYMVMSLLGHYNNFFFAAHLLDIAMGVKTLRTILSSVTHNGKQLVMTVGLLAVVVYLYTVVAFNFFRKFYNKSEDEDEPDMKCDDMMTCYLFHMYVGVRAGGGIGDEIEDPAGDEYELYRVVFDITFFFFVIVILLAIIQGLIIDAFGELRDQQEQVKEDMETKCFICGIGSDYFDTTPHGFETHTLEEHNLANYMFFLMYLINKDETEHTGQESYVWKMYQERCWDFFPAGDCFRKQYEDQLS
T1 sequence (P26883 2-108 partner limits assumed): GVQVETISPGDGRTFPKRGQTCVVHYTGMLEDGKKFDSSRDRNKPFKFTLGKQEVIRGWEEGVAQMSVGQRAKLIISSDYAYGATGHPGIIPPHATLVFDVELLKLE

RyR = conditions: cited from earlier work
RyR2 = conditions: WT and RyR2-S2808D+/+ mice; cited from earlier work
RyR1 [3] = target: T1, RyR1; conditions: aged mice; cited from earlier work

COc1ccc2c(c1)CN(C)CCS2 [Compound 5107]
indices of muscle function (RyR1 [1]): improves
Ca2+ dependent neutral protease calpain activity and plasma creatinine kinase levels (RyR1 [2]): reduced
depletion of calstabin1 from the RyR1 complex (RyR1 [2]): prevented
SR Ca2+ leak (RyR; after myocardial ischemia-reperfusion): inhibited
ventricular arrhythmias, infarct size, and left ventricular remodeling (RyR; at 15 days after reperfusion): reduced
HF progression (RyR2): reduced
RyR2-mediated diastolic SR Ca2+ leak (RyR2): inhibited
binding of calstabin1 to RyR1 (RyR1 [3]): stabilized
intracellular calcium leak (RyR1 [3]): reduced
reactive oxygen species (ROS) (RyR1 [3]): decreased
tetanic Ca2+ release, muscle-specific force, and exercise capacity (RyR1 [3]): enhanced
